# Experimental data reported in PubChem BioAssay (NCI).
# “And” between values parts separate entries of the source, which are not always exact repeats. Identical values can stand only once.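 Dose response: 5 concentrations. Exposure: 48 h. Format: 96-well plates. Endpoint: linear interpolation; highest concentration if not reached. Abbreviation: GI50, concentration required for 50% inhibition of growth. TGI marks complete inhibition of growth.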
# Columns and labels:
# Assay in all cases: NCI anticancer screen, dose series, 48 h
# OVCAR-4 ovarian = tested on: OVCAR-4 ovarian
# MCF7 breast = tested on: MCF7 breast
# UACC-257 melanoma = tested on: UACC-257 melanoma
# NCI-H460 lung = tested on: NCI-H460 lung
# MALME-3M melanoma = tested on: MALME-3M melanoma
# 786-0 renal = tested on: 786-0 renal
# OVCAR-5 ovarian = tested on: OVCAR-5 ovarian
# OVCAR-8 ovarian = tested on: OVCAR-8 ovarian
# UACC-62 melanoma = tested on: UACC-62 melanoma
# RPMI-8226 leukemia = tested on: RPMI-8226 leukemia
SMILES,GI50 (OVCAR-4 ovarian),TGI (OVCAR-4 ovarian) [µM],GI50 (MCF7 breast),TGI (MCF7 breast) [µM],GI50 (UACC-257 melanoma),TGI (UACC-257 melanoma),GI50 (NCI-H460 lung),TGI (NCI-H460 lung) [µM],GI50 (MALME-3M melanoma),TGI (MALME-3M melanoma) [µM],GI50 (786-0 renal),TGI (786-0 renal) [µM],GI50 (OVCAR-5 ovarian),TGI (OVCAR-5 ovarian),GI50 (OVCAR-8 ovarian),TGI (OVCAR-8 ovarian) [µM],GI50 (UACC-62 melanoma),TGI (UACC-62 melanoma) [µM],GI50 (RPMI-8226 leukemia),TGI (RPMI-8226 leukemia) [µM]
CC(=O)Nc1cccc(-n2c(=O)n(C3CC3)c(=O)c3c(Nc4ccc(I)cc4F)n(C)c(=O)c(C)c32)c1,0.515 µM and 2.65 µM,> 100,12.1 µM and > 8.55 µM,> 69.5,< 0.01 µM and 0.00182 µM,< 0.01 µM and 0.0126 µM,3.19 µM and > 4.26 µM,> 93.6,< 0.01 µM and 0.00164 µM,< 0.01,4.02 µM and > 7.71 µM,> 57.7,< 0.01 µM and 0.00472 µM,29.8 µM and > 10 µM,4.22 µM and > 6.71 µM,> 49.6,< 0.01 µM and 0.00184 µM,0.0182,5.35 µM and > 4.38 µM,> 100
CN(C)CC(=O)N1CCC(c2ccc(NC(=O)c3ncc(C#N)[nH]3)c(C3=CCCCC3)c2)CC1,10.1 µM,23,3.37 µM,16.9,2.17 µM,4.8 µM,7.83 µM,23.4,4.3 µM,16.1,3.22 µM,13.1,10.8 µM,25.2 µM,8.34 µM,24,3.3 µM,11.7,8.76 µM,34.6
O=C(CSc1nc2ccc([N+](=O)[O-])cc2[nH]1)Nc1ccc(F)c(Cl)c1,1.99 µM,17.8,2.03 µM,9.4,1.54 µM,6.32 µM,2.87 µM,11.3,1.75 µM,6.96,2.84 µM,11.8,2.65 µM,11.5 µM,3.04 µM,> 34.4,1.63 µM,10.5,1.39 µM,> 21.5
COC1(C(=O)N2Cc3nc(Cl)nc(N[C@H](C)c4cc(N)cc(C(F)(F)F)c4)c3C2)CCOCC1,19.8 µM,99.2,17.5 µM,49.3,17.2 µM,37.3 µM,18.7 µM,40.9,17.3 µM,43,18.7 µM,68.4,18.2 µM,58 µM,23.1 µM,> 88.5,13.8 µM,27.7,22.2 µM,> 83.2
Cc1ccc2c(C(C[N+](=O)[O-])c3cccs3)c(-c3ccccc3)[nH]c2c1 (stereo unspecified),4.45 µM,13.9,1.41 µM,12.8,3.88 µM,13.7 µM,1.38 µM,6.14,1.55 µM,6.12,2.26 µM,7.89,4.07 µM,11.1 µM,3.55 µM,> 33.3,1.4 µM,5.58,2.05 µM,23.7
CCOc1ccc(S(=O)(=O)/N=C2\C=C(SCC(=O)O)C(=O)c3ccccc32)cc1,2.16 µM,6.31,1.64 µM,3.68,16.1 µM,39.3 µM,12.4 µM,28.2,2.13 µM,3.69,17.4 µM,36,5.5 µM,25.1 µM,2.82 µM,10.3,1.99 µM,3.8,2.05 µM,13.2
CC1(C)N=C(N)N=C(N)N1c1ccc(CCCCc2ccc(S(=O)(=O)F)cc2)cc1,8.23 µM,> 86.5,0.425 µM,14.2,2.07 µM,18.3 µM,0.153 µM,13.3,12.2 µM,32.4,0.64 µM,19.1,2.62 µM,> 100 µM,1.47 µM,28.6,0.368 µM,16.8,0.522 µM,10.8
CC(C)(C)OC(=O)NC(Cc1ccccc1)C(=O)OCN1C(=O)C2C3C=CC(C2C1=O)C1C2C(=O)N(COC(=O)C(Cc4ccccc4)NC(=O)OC(C)(C)C)C(=O)C2C31 (stereo unspecified),–,> 100,–,> 100,–,> 100 µM,–,> 100,–,> 100,–,> 100,–,> 100 µM,–,> 100,–,> 100,–,> 100
Nc1n[nH]c2ccc([C@@H]3Nc4ccc5[nH]ncc5c4[C@H]4[C@H]5CCC(C5)[C@H]43)cc12,2.05 µM,> 100,0.363 µM,> 100,15.8 µM,> 100 µM,0.358 µM,10.9,0.461 µM,> 47.5,0.757 µM,33.8,0.572 µM,49.6 µM,0.479 µM,> 47.5,0.389 µM,> 61.1,0.338 µM,2.37
Brc1cccc(-c2cc(-c3ccc4c(c3)OCCO4)[nH]n2)c1,7.79 µM,48.5,1.06 µM,41.2,11.6 µM,52.9 µM,0.877 µM,6.07,1.3 µM,53.4,2.51 µM,28.4,3.69 µM,35.4 µM,1.68 µM,40.1,0.871 µM,40.9,1.43 µM,236
CCn1c(-c2nonc2N)nc2c(C#CCN)ncc(OCCCN)c21,> 25 µM,> 25,> 25 µM,> 25,> 25 µM,> 25 µM,> 25 µM,> 25,> 25 µM,> 25,> 25 µM,> 25,> 25 µM,> 25 µM,> 25 µM,> 25,> 25 µM,> 25,> 25 µM,> 25
NC(CO)Cc1cnc[nH]1 (stereo unspecified),–,> 10,> 100 µM,> 100,–,> 100 µM,> 100 µM,> 100,> 100 µM,> 100,> 100 µM,> 100,–,> 100 µM,> 100 µM,> 100,> 100 µM,> 100,> 100 µM,> 100
CN1CCN(Cc2ccc(C(=O)Nc3cncc(C#Cc4cnc(N)c5ccccc45)c3)cc2C(F)(F)F)CC1,1.18 µM,3.05,1.67 µM,3.39,2.14 µM,4.34 µM,1.76 µM,3.39,1.71 µM,3.25,1.78 µM,3.25,2.67 µM,6.91 µM,2.32 µM,5.38,5.22 µM,17.5,2.15 µM,5.27
COc1ccc(C(=O)Nc2ncc(Cc3ccc(Cl)cc3)s2)cc1,2.7 µM,> 100,0.0385 µM,> 100,20 µM,> 100 µM,0.0406 µM,> 100,0.087 µM,> 100,0.0779 µM,> 100,0.247 µM,> 100 µM,0.117 µM,> 100,0.0475 µM,> 100,0.0375 µM,–
N#CC(=C1SCS1)[N+](=O)[O-],4.79 µM,19,1.31 µM,17.8,1.09 µM,7.06 µM,2.99 µM,10.1,3.21 µM,18.1,3.12 µM,14,4.12 µM,19.9 µM,3.16 µM,13.8,2.29 µM,13.6,0.678 µM,4.06
CCCCCCCCCCCCCC(=S)NCCCC[C@H](NC(=O)OCc1ccccc1)C(=O)Nc1ccccc1,3.9 µM,> 100,4.4 µM,> 100,5.38 µM,> 100 µM,4.02 µM,> 100,7.41 µM,> 100,5.43 µM,> 100,10.3 µM,> 100 µM,4.35 µM,> 100,3.51 µM,> 100,3.5 µM,> 100
O=C(Nc1cccc(-n2ccc3c(NC(=O)c4ccccc4)nccc32)c1)c1cccc(C(F)(F)F)c1,0.104 µM,> 67.7,0.0362 µM,–,0.0804 µM,19.9 µM,0.0354 µM,1.22,0.0464 µM,10.4,0.0645 µM,1.9,0.239 µM,> 100 µM,0.036 µM,2.43,0.0386 µM,6.91,0.0327 µM,1.17
CN1CCN(CC#Cc2cccc(C(=O)c3cnn(-c4ccc(F)cc4)c3N)c2)CC1,> 25 µM,> 25,> 25 µM,> 25,> 25 µM,> 25 µM,> 25 µM,> 25,> 25 µM,> 25,> 25 µM,> 25,> 25 µM,> 25 µM,> 25 µM,> 25,> 25 µM,> 25,> 25 µM,> 25
COC(=O)C(=O)CC(=O)CCn1ncc(Cl)c(Cl)c1=O,–,6.61,15.6 µM,> 100,–,25.8 µM,–,32.3,–,21.3,–,43.6,–,34.9 µM,–,27.9,–,25.8,–,52.6
